Source: paper PMC7288026, “Novel Class of Chalcone Oxime Ethers as Potent Monoamine Oxidase-B and Acetylcholinesterase Inhibitors” (Molecules, 2020)
Read-outs that look alike come from different tables or passages of the source.

Key:
[1] = molecular target: T1, AChE (Type VI-S from Electrophorus electricus) (Electrophorus electricus, UniProt O42275); assay: AChE inhibition assay (DTNB / acetylthiocholine iodide); format: biochemical
T1 construct: purchased Sigma-Aldrich Type VI-S
Procedure: (§1) AChE activity was measured using Type VI-S from Electrophorus electricus in the presence of 0.5 mM 5,5’-dithiobis(2-nitrobenzoic acid) and 0.5 mM acetylthiocholine iodide, as described previously. Enzymes and chemicals were purchased from Sigma–Aldrich (St. Louis, MO, USA).
Kinetic experiments were carried out at five substrate and three inhibitor concentrations.

MAO-B = molecular target: T2, MAO-B (Homo sapiens, UniProt P27338); assay: biochemical; details: for IC50: mean ± standard error of duplicates, reference compounds after 30 min preincubation with enzyme, read-out: IC50 (µM) MAO-B; for remaining activity at 1 µM: read-out: Residual Activity (%) MAO-B (1.0 µM); for SI (selectivity index, ratio of IC50 MAO-A to MAO-B): MAO-A vs. MAO-B IC50 ratio
T2 construct: purchased Sigma-Aldrich
T2 sequence (P27338 1-520): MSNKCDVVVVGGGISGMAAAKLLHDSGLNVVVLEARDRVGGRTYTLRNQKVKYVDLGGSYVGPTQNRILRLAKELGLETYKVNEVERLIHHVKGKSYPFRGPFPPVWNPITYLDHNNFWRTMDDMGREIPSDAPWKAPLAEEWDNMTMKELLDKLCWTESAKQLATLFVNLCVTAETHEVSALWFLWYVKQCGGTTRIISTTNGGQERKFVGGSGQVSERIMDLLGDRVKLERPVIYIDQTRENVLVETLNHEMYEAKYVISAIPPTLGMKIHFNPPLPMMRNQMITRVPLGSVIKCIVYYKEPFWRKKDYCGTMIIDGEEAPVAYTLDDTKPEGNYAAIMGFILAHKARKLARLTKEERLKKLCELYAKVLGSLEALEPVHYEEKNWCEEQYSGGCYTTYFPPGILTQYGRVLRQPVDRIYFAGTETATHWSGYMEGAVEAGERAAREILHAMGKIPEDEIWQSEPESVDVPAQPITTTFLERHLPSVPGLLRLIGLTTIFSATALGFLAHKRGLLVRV
Procedure: as §1, with “Recombinant hMAO-A and hMAO-B activities were assayed while using kynuramine (0.06 mM) and benzylamine (0.3 mM) as substrates, respectively, as described previously. […] AChE” for “AChE”, “USA). […]” for “USA).”

recombinant hMAO-A = molecular target: T3, recombinant hMAO-A (Homo sapiens, UniProt P21397); assay: MAO-A inhibition assay (kynuramine substrate); format: biochemical; details: for remaining activity at 1 µM: mean ± standard error of duplicate experiments; for IC50: mean ± standard error of duplicates, reference compounds after 30 min preincubation with enzyme
T3 construct: purchased Sigma-Aldrich
T3 sequence (P21397 1-527): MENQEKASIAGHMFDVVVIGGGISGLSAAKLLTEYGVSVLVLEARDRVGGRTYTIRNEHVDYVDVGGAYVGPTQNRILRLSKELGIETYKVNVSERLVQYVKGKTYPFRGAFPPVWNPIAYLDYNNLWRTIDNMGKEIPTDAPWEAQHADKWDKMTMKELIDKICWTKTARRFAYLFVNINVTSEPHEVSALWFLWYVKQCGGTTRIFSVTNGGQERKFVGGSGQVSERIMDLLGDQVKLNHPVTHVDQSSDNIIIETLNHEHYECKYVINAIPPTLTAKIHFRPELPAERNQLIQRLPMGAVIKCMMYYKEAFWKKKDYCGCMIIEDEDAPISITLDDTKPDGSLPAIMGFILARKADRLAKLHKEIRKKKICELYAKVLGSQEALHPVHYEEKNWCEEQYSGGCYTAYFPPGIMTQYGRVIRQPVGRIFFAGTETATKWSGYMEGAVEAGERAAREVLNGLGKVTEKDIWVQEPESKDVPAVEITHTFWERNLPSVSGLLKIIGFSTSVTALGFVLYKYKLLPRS
Procedure: as §1, with “Recombinant hMAO-A and hMAO-B activities were assayed while using kynuramine (0.06 mM) and benzylamine (0.3 mM) as substrates, respectively, as described previously. […] AChE” for “AChE”
AChE inhibitory activities were also determined, except at a concentration of 10 µM. […] Kinetic experiments were carried out at five substrate and three inhibitor concentrations.

[2] = compound at 10 µM, mean ± standard error of duplicate experiments, read-out: Residual Activity (%) AChE (10 µM)
[3] = compound at 1.0 µM, read-out: Residual Activity (%) MAO-A (1.0 µM)
[4] = compound at 1.0 µM, mean ± standard error of duplicate experiments

T1 sequence (O42275 24-633): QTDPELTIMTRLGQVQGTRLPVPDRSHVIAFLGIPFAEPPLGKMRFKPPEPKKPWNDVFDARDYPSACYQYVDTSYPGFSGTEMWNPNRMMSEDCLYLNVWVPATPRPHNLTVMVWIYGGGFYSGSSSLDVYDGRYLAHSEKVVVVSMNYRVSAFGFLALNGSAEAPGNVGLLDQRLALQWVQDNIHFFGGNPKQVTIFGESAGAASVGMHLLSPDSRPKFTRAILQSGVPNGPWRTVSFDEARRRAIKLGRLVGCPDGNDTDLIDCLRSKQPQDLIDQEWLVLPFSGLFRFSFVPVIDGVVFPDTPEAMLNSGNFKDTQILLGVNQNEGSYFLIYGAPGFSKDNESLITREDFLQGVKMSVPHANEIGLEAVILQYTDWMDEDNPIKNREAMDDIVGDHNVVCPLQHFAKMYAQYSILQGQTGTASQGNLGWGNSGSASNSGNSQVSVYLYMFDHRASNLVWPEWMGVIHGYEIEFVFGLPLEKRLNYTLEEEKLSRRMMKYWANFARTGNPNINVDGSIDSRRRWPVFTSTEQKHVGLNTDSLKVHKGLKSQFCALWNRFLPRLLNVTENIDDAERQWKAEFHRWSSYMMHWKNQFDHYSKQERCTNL

Row | Structure (SMILES) | IC50 [1] [µM] | remaining activity at 10 µM [1, 2] [%] | IC50 (MAO-B) [µM] | remaining activity at 1 µM (MAO-B) [%] | remaining activity at 1 µM (recombinant hMAO-A; [3]) [%] | IC50 (recombinant hMAO-A) [µM] | SI (selectivity index, ratio of IC50 MAO-A to MAO-B) (MAO-B) | remaining activity at 1 µM (MAO-B; [4]) [%] | Residual Activity (%) AChE (10 µM) ([1]; compound at 10 µM, mean ± standard error of duplicate experiments, 10 µM) [%] | remaining activity at 10 µM ([1]; read-out: Residual Activity (%) AChE (10 µM), compound at 10 µM, mean ± standard error of duplicate experiments) [%] | remaining activity at 1 µM (recombinant hMAO-A; read-out: Residual Activity (%) MAO-A (1.0 µM), compound at 1.0 µM) [%]
1 | COc1ccc(C(/C=C/c2ccccc2)=N\Oc2ccc(C(=O)/C=C/c3cc(OC)c(OC)c(OC)c3)cc2)cc1 [COE-24] | > 40 | 72.5 ± 2.91 | > 10 | 87.4 ± 2.81 | 88.9 ± 0.98 | > 10 | – | – | – | – | –
2 | COc1ccc(C(=O)/C=C/c2ccc(O/N=C(\C)c3ccccc3)cc2)cc1 [COE-1] | > 40 | 77.6 ± 2.64 | 0.28 ± 0.041 | 29.9 ± 5.25 | 94.4 ± 2.99 | > 10 | >35.7 | – | – | – | –
3 | COc1ccc(/C=C/C(=N/Oc2ccc(/C=C/C(=O)c3ccc(OC)cc3)cc2)c2ccc(OC)cc2)cc1 [COE-20] | 11.2 ± 1.33 | 60.6 ± 5.74 | 0.35 ± 0.011 | 21 ± 0.42 | 89.7 ± 4.51 | > 10 | >28.6 | – | – | – | –
4 | Cc1ccc(/C=C/C(=O)c2ccc(O/N=C3\CCc4ccccc43)cc2)cc1 [COE-12] | > 40 | 72 ± 1.95 | 0.27 ± 0.056 | – | 95.7 ± 2.02 | > 10 | >37.0 | 40.5 ± 0.1 | – | – | –
5 | COc1ccc(C(/C=C/c2ccccc2)=N\Oc2ccc(C(C)=O)cc2)cc1 [COE-16] | > 40 | 77.3 ± 6.62 | > 10 | 97.8 ± 0.08 | 93.4 ± 3.44 | > 10 | – | – | – | – | –
6 | COc1ccc(C(=O)/C=C/c2ccc(ON=C(c3ccccc3)c3ccccc3)cc2)cc1 [COE-3] | > 40 | 77.1 ± 0.66 | 0.048 ± 0.021 | 21.6 ± 4.88 | 87.3 ± 1 | > 10 | >208.3 | – | – | – | –
7 | COc1ccc(/C=C/C(=O)c2ccc(ON=C3CCCCC3)cc2)cc1 [COE-10] | 9.42 ± 0.031 | < 50 | 0.21 ± 0.01 | 21.6 ± 1.22 | 67.1 ± 2.02 | > 10 | >47.6 | – | 47.6 ± 0.93 | – | –
8 | COc1cccc(C(=O)/C=C/c2ccc(O/N=C(\C)c3cccc4ccccc34)cc2)c1 [COE-8] | > 40 | 70.7 ± 3.26 | 0.042 ± 0.021 | – | 68.6 ± 2.74 | 7.68 ± 0.34 | 182.9 | 10.5 ± 0.21 | – | – | –
9 | COc1ccc(/C=C/C(=O)c2ccc(O/N=C(\C)c3cccc4ccccc34)cc2)cc1OC [COE-14] | 13.2 ± 0.84 | 62.2 ± 4.19 | 1.58 ± 0.031 | 63.7 ± 1.39 | 91.1 ± 3.84 | > 10 | >6.3 | – | – | – | –
10 | COc1ccc(C(=O)/C=C/c2ccc(O/N=C3\CCc4ccccc43)cc2)cc1 [COE-4] | > 40 | – | 0.059 ± 0.012 | 4.31 ± 1.22 | – | 19.3 ± 0.21 | 32.7 | – | – | 62.1 ± 1.51 | 83.7 ± 1.54
